This is an account of results in publication PMC3856571 (Journal of the American Chemical Society, 2013).

Numbered stars: 1 amine (or outer) side, 2 acyl side, 3 side chain; on linkers, the order of the positions; unused ones are H or OH. Bridge positions count the residues as written; N and C are the ends. Square brackets hold non-standard residues; d marks the D form. Peptide text beside a SMILES is read from it. Trimesoyl = O=C(c1cc(C(=O)[*:2])cc(C(=O)[*:3])c1)[*:1]; Phg = N[C@H](C(=O)O)c1ccccc1; Nle = CCCC[C@H](N)C(=O)O; Dap = NC[C@H](N)C(=O)O

The target in data set [1] is bovine serum albumin (BSA) (Bos taurus, UniProt P02769). Briefly: Fluorescence anisotropy specificity test, BSA. It counts as binding. (Fluorescence polarisation rises when a labelled molecule tumbles more slowly, as on binding a larger partner.)
Data set [2] concerns the target glutathione-S-transferase-PLCγ SH2 domain fusion (GST-SH2). Briefly: Fluorescence anisotropy specificity test, GST-SH2. It counts as binding. The note with it: FA, Fig. S4.
In a further data set the test system is GST-BRCT fusion protein. The note with it: FA.
The subject of the next data set is WEHI-13VAR fibroblasts. It is filed as cell-based.
Another data set concerns the target HIV capsid protein (Human immunodeficiency virus type 1 group M subtype B, UniProt P04591). Briefly: Fluorescence anisotropy specificity test, HIV capsid protein. It counts as binding. The note with it: FA.
In data set [3] the target is T1, protein phosphatase PTP1B (Homo sapiens, UniProt P18031).
T1 sequence (P18031 1-435): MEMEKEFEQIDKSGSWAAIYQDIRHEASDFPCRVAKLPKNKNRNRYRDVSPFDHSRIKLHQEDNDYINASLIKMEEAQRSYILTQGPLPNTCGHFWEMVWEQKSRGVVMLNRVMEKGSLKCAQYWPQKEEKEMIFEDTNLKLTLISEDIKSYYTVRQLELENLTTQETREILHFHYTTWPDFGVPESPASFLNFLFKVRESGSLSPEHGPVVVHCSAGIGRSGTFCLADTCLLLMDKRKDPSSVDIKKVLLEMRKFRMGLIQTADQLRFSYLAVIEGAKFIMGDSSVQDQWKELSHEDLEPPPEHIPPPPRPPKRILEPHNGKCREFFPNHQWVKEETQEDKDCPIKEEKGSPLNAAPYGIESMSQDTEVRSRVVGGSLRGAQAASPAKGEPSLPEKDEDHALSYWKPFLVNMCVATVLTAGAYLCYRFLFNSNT
Kind of data set: Fluorescence anisotropy specificity test, PTP1B. Particulars: FA. It counts as binding.

The next data set deals with TNFα (Homo sapiens, UniProt P01375). Kind of data set: Fluorescence anisotropy binding of resynthesized FITC-labeled peptides. Particulars: resynthesized FITC-labeled peptide, FA analysis, Fig. S3.
TNFα, sequence (P01375 77-233 limits assumed): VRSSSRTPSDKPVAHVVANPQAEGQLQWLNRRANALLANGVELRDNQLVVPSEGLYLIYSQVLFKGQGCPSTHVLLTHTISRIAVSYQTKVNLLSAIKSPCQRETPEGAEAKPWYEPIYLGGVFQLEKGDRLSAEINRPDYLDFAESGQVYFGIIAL

bovine serum albumin (BSA), sequence (P02769 25-607): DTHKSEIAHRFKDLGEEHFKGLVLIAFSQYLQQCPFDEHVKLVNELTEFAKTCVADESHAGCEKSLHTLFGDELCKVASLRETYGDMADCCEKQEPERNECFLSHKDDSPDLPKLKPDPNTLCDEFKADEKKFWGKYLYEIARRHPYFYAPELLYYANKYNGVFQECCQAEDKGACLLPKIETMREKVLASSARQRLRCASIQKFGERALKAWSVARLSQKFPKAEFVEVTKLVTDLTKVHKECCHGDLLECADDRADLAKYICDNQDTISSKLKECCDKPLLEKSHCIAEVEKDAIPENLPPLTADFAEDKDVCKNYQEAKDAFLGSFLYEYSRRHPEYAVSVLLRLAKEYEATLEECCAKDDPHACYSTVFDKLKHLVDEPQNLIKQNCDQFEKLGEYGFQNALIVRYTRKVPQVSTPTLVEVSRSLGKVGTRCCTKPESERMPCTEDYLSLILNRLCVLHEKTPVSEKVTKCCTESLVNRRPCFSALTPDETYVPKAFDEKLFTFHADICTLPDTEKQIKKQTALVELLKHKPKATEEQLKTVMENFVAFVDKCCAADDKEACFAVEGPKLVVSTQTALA

For `C[C@H]1NC(=O)[C@H](Cc2ccc(O)cc2)NC(=O)[C@H](c2ccccc2)NC(=O)c2cc3cc(c2)C(=O)NC[C@@H](C(N)=O)NC(=O)[C@H](Cc2c[nH]cn2)NC(=O)[C@@H](CCCCN)NC(=O)CNC(=O)[C@@H](Cc2ccccc2)NC(=O)[C@H](Cc2ccc(O)cc2)NC(=O)[C@H](CCCCNC3=O)NC1=O` [Anticachexin C1, bicyclo(Phg-Tyr-D-Ala-Lys-Tyr-D-Phe-Gly-D-Lys-His-Dap)] ([Phg]Y[dA]KY[dF]G[dK]H[Dap]-NH2; linker N-4-10 via Trimesoyl; C-terminus assumed), the Kd (as a rule, the constant that tells how readily two partners part at equilibrium) in data set [1] was about 34 µM. The “KD for GST-SH2” value in data set [2] is listed as “not to any of the other proteins”. In addition, the “binding to GST-BRCT fusion protein” value with GST-BRCT fusion protein is given as “not to any of the other proteins”. Further, the “LD50 of TNFα in the presence of 50 μM Anticachexin C1” value in the data set on WEHI-13VAR fibroblasts (TNFα 0-250 ng/mL, fixed 50 μM Anticachexin C1, MTT, Fig. S6) amounted to 1.8 ng/mL. Further, in the data set with WEHI-13VAR fibroblasts (TNFα 0.04 ng/ml, actinomycin-D, peptide 0-25 μM, MTT, Fig. 4c), the “protection of cells from TNFα-induced cell death” value is on record as “protected the cells from TNFα-induced cell death in a concentration-dependent manner”. Moreover, at HIV capsid protein, the “binding to HIV capsid protein” value is “not to any of the other proteins”. In addition, in data set [3], the “binding to PTP1B” value is on record as “not to any of the other proteins”.
As to `CCCC[C@@H]1NC(=O)[C@@H]2CCCCNC(=O)c3cc(cc(c3)C(=O)N[C@@H](C)C(=O)N[C@H](Cc3ccccc3)C(=O)N[C@@H](Cc3c[nH]c4ccccc34)C(=O)N[C@H]([C@H](C)O)C(=O)N[C@@H](CCC(N)=O)C(=O)N2)C(=O)NC[C@@H](C(N)=O)NC(=O)[C@H](Cc2c[nH]cn2)NC(=O)[C@H](C)NC(=O)[C@@H](CC(C)C)NC1=O` [Anticachexin C2, bicyclo(Ala-D-Phe-Trp-D-Thr-Gln-Lys-Nle-D-Leu-Ala-His-Dap)] (A[dF]W[dT]QK[Nle][dL]AH[Dap]-NH2; linker N-6-11 via Trimesoyl; C-terminus assumed), the dissociation constant Kd in data set [1] was determined as 7.4 µM; in data set [2] (read-out: KD for GST-SH2), 1500 nM.
As to “Bicyclo(Arg-Arg-Arg-Arg-Nal-Phe-Dap-Ser-D-Val-Pro-pTyr-His-Dap)”, the “KD for TNFα” value on TNFα is given as “no detectable binding”.
With TNFα, the “LD50 of TNFα in the absence of TNFα inhibitor” value in the data set with WEHI-13VAR fibroblasts (TNFα 0-250 ng/mL, MTT, Fig. S6) is 0.46 ng/mL.
